Source: US20160128926A1, “COMPOSITIONS AND METHODS FOR TREATING NAILS, CLAWS, AND HOOFS” (TOPICAL SOLUTIONS, INC., priority 2013, published 2016)

Tests used:
[1] = target: T1, hFP prostaglandin receptor (Homo sapiens, UniProt P43088); assay: Competition binding assay (Reference Example 1), cited as the method for Example 1
T1 construct: expressed in transfected cells; host or cells: COS 7 cells transiently transfected (pCR 3.1 vector); the summary sentence instead says stably transfected CHO-KI cells

[2] = tested on: Prostanoid F receptor family and the Prostanoid E1 receptor family; assay: R-SAT functional assay (Reference Example 2), cited as the method for Example 2; assay type: cell-based; details: 23 Days
From the text: Without intending to be limited by theory, there are two principal prostaglandin receptor families that control nail growth: the Prostanoid F receptor family and the Prostanoid E1 receptor family. Potential at these receptors in measured in two types of assays-binding assays and functional assays. The functional assay is described herein and the binding assay is above as Reference Example 1.
There are many functional assays available, for example, growth in Swiss 3T3 cells. Preferred is the R-SAT system. R-SAT is a cell-based assay system where genes are transferred to cultured cells. The functional activity of the gene products, or potential drug targets, are then evaluated through signal transduction pathways that lead to cellular growth. The growth signals are reported using marker gene technologies. Thus, effects of drugs on potential drug targets can be efficiently detected as changes in color or fluorescence. R-SAT enables the efficient screening of large compound libraries for identification of new chemistries at given targets, as well as detailed pharmacological testing of compounds at a wide range of targets, as described in MESSIER, T., DORMAN, C. M.; BRAUNEROSBORNE, H.; EUBANKS, D. & BRANN, M. R. (1995) Pharmacol. and Toxicol. 76 308-311, incorporated herein by reference.
was tested according to the method of Reference Example 2.

T1 sequence (P43088 whole entry): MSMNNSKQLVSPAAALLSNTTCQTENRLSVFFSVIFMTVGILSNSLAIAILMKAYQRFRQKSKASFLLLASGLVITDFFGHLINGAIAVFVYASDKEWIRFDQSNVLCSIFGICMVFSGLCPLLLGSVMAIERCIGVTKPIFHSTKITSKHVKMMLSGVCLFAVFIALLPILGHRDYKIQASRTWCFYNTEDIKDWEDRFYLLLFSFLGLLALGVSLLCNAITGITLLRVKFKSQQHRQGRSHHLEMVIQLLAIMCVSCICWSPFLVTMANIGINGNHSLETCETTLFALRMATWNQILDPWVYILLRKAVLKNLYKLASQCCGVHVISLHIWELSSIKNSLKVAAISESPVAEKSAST

Compound | Average Grades ([1]; 23 Days) | Average Grades ([1]; 25 Days) | Average Grades ([1]; 26 Days) | Average Grades [2]
CC(C)OC(=O)CCCCCC[C@@H]1[C@@H](CCC(O)CSc2ccccc2)[C@H](O)C[C@@H]1O (stereo partly shown) [Example 1] | 0.4 | 0.1 | 0.7 | 
COC(=O)CCCCCC[C@@H]1[C@@H](CCC(O)CSc2ccccc2Br)[C@H](O)C[C@@H]1O (stereo partly shown) [Example 2] |  |  |  | 0.1
